These results are taken from patent publication US12517113B2, “Multikinase degraders” (University of Houston System, priority 2019, dated 2026).

In assay [1] the target is T1, CHK1 kinase (Homo sapiens, UniProt O14757).
T1 construct: endogenous in cells; host or cells: A375 human malignant melanoma cells (ATCC)
T1 sequence (O14757 1-476): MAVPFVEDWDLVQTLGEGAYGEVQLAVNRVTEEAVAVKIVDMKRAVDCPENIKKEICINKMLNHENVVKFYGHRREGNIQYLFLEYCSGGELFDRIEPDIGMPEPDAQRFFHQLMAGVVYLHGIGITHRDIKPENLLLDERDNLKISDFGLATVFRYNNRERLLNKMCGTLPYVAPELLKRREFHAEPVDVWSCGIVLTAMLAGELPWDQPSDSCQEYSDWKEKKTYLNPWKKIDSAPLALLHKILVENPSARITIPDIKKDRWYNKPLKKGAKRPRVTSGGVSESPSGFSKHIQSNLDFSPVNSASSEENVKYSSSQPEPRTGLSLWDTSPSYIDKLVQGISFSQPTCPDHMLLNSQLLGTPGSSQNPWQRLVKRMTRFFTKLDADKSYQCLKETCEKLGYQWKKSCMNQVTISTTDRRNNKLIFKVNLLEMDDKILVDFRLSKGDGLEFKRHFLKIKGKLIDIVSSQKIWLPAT
Put plainly: CHK1 degradation in A375 melanoma cells, western blotting. As to conditions: western blot; for degradation of CHK1 kinase: 18 h treatment, 37° C., FIG. 6. Type of assay: cell-based. On the procedure:
(§1) Tests were performed to determine the activity of the exemplary PROTACs PEG1-thalidomide, PEG2-thalidomide, PEG3-thalidomide, and PEG4-thalidomide having the structures shown above. Human A375 malignant melanoma cells were obtained from American Type Culture Collection ATCC) and cultured according to ATCC protocols. Subsequently cells were treated with the PROTACs for 18 h at 37° C. and 5% CO2. Subsequently cells were harvested and lysed using commercially available lysis buffer (Biorad) containing Roche cOmplete™ Protease Inhibitor Cocktail tablets. The amount of degraded proteins were probed with specific antibodies purchased from Cell Signaling in western blotting. α-Tubulin was used as the loading control.
In further tests, human A375 malignant melanoma cells were treated with PEG2-thalidomide at different concentrations for 12 h at 37° C. and 5% CO2. Proteins CHK1, GAPDH, and α-Tubulin were probed by specific antibodies. GAPDH and α-Tubulin were used as the loading control. […] Cell culture conditions, lysis and western blotting were performed similar to above.
Background: A western blot detects proteins with antibodies after separation by electrophoresis.

Assay [2] relates to MEK kinase. Put plainly: MEK degradation in A375 melanoma cells, western blotting. Type of assay: cell-based, human. The settings on record: 12 h, western blot, FIG. 8. On the procedure:
as §1
(§2) In further tests, the effect of PEG2-Thalidomide degrader […] was tested. Human A375 malignant melanoma cells were treated with PEG2-thalidomide for 12 h at 37° C. and 5% CO2. Proteins MEK and ERK were probed by specific antibodies. The procedure used was similar to the one outlined above.

Assay [3] relates to ERK kinase. Put plainly: ERK degradation in A375 melanoma cells, western blotting. Type of assay: cell-based, human. As to conditions: 12 h, western blot, FIG. 8. On the procedure:
as §1, §2

Assay [4] has as its system A375 malignant melanoma cells. Put plainly: A375 cell viability, CellTiter Glo assay. As to conditions: Homo sapiens, A-375, 48 h treatment, 384 well plates, FIG. 10. Type of assay: cell-based. The protocol: In further tests, human A375 malignant melanoma cells were treated with PEG2-thalidomide for 48 h at 37° C. and 5% CO2. Subsequently, the viability of A375 malignant melanoma cells was checked using CellTiter Glo assay (Promega) in 384 well plates, and the luminescence signal was quantified using Biotek H1 plate reader.
On the technique in general: Cellular ATP, detected with luciferase, serves as a proxy for viable cell number.

pIC50: −log10 of the molar value.

Regarding `N#CCc1ccc(Nc2nc(Nc3cc(C4CC4)[nH]n3)cc(C(=O)NCc3cn(CCOCCOCCOCCOCCNC(=O)COc4cccc5c4C(=O)N(C4CCC(=O)NC4=O)C5=O)nn3)n2)cc1` (stereo not drawn) [PEG4-thalidomide], in assay [1], the “degradation of CHK1 kinase” value was “degrade the protein CHK1”.
The term pIC50 denotes −log10 of the IC50, conventionally taken in molar units. A high value points to a low IC50. For the compound `N#CCc1ccc(Nc2nc(Nc3cc(C4CC4)[nH]n3)cc(C(=O)NCc3cn(CCOCCOCCNC(=O)COc4cccc5c4C(=O)N(C4CCC(=O)NC4=O)C5=O)nn3)n2)cc1` (stereo not drawn) [PEG2-thalidomide], the “degradation of CHK1 kinase” value in assay [1] is reported as “degrade the protein CHK1”. Besides, in assay [1] (different concentrations, 12 h, FIG. 7), the “dose response of degradation of CHK1” value was “demonstrating its degradation”. In assay [2], the “degradation of MEK kinase” value is “degradation of MEK”. In assay [3], the “degradation of ERK kinase” value was “not ERK”. In addition, the pIC50 in assay [4] is 6.11.
